# Active and inactive are the calls of the source. The calls are words filed in the database; no cut-off is given here.
# Key:
# Cornu aspersum = test: Inhibition of snail beta-mannosidase at 0.1 mM using p-nitrophenyl glycopyranoside as substrate preincubated for 5 mins followed by substrate addition and measured after 20 mins by visible absorption spectroscopic analysis
# Prunus dulcis = test: Inhibition of almond beta-glucosidase at 0.1 mM using p-nitrophenyl glycopyranoside as substrate preincubated for 5 mins followed by substrate addition and measured after 20 mins by visible absorption spectroscopic analysis
# Oryza sativa = test: Inhibition of rice beta-glucosidase at 0.1 mM using p-nitrophenyl glycopyranoside as substrate preincubated for 5 mins followed by substrate addition and measured after 20 mins by visible absorption spectroscopic analysis
# Canavalia ensiformis = test: Inhibition of jack beans beta-N-acetylglucosaminidase at 0.1 mM using p-nitrophenyl glycopyranoside as substrate preincubated for 5 mins followed by substrate addition and measured after 20 mins by visible absorption spectroscopic analysis
# Beta-galactosidase [1] = molecular target: T1, Beta-galactosidase (Bos taurus, UniProt Q58D55); test: Inhibition of bovine liver beta-galactosidase using p-nitrophenyl glycopyranoside as substrate preincubated for 5 mins followed by substrate addition and measured after 20 mins by visible absorption spectroscopic analysis
# T1 sequence (Q58D55 whole entry): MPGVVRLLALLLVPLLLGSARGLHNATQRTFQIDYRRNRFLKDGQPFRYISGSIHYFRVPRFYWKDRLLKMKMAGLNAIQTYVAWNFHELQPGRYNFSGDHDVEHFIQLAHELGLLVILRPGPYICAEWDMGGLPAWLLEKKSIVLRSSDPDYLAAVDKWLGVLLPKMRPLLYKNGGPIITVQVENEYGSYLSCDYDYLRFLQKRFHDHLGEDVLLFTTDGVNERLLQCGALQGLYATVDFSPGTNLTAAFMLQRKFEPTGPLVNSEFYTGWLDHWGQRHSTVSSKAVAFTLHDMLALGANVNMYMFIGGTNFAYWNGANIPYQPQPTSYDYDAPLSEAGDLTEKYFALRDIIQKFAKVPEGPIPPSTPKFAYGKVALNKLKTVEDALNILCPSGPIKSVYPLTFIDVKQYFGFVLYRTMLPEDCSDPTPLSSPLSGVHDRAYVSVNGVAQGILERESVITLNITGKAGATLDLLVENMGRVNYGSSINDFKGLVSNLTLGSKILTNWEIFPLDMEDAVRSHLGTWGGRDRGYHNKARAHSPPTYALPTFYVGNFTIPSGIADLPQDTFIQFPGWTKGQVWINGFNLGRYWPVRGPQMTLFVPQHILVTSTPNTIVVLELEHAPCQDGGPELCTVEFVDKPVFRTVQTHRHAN
# Saccharomyces cerevisiae = test: Inhibition of Saccharomyces cerevisiae alpha-glucosidase at 0.1 mM using p-nitrophenyl glycopyranoside as substrate preincubated for 5 mins followed by substrate addition and measured after 20 mins by visible absorption spectroscopic analysis
# Beta-galactosidase [2] = molecular target: T1, Beta-galactosidase; test: Competitive inhibition of bovine liver beta-galactosidase using p-nitrophenyl glycopyranoside as substrate preincubated for 5 mins followed by substrate addition and measured after 20 mins by Lineweaver-Burk plot analysis
# [3] = molecular target: Alpha-galactosidase (Coffea arabica) (UniProt Q42656); test: Inhibition of coffee beans alpha-galactosidase at 0.1 mM using p-nitrophenyl glycopyranoside as substrate preincubated for 5 mins followed by substrate addition and measured after 20 mins by visible absorption spectroscopic analysis
# Aspergillus niger = test: Inhibition of Aspergillus niger amyloglucosidase at 0.1 mM using p-nitrophenyl glycopyranoside as substrate preincubated for 5 mins followed by substrate addition and measured after 20 mins by visible absorption spectroscopic analysis
# Homo sapiens = species on record: Homo sapiens; test: Inhibition of human alpha-fucosidase at 0.1 mM using p-nitrophenyl glycopyranoside as substrate preincubated for 5 mins followed by substrate addition and measured after 20 mins by visible absorption spectroscopic analysis
# [4] = molecular target: T2, Alpha-mannosidase (Canavalia ensiformis) (UniProt C0HJB3); test: Inhibition of jack beans alpha-mannosidase at 0.1 mM using p-nitrophenyl glycopyranoside as substrate preincubated for 5 mins followed by substrate addition and measured after 20 mins by visible absorption spectroscopic analysis
# T2 sequence (whole entry): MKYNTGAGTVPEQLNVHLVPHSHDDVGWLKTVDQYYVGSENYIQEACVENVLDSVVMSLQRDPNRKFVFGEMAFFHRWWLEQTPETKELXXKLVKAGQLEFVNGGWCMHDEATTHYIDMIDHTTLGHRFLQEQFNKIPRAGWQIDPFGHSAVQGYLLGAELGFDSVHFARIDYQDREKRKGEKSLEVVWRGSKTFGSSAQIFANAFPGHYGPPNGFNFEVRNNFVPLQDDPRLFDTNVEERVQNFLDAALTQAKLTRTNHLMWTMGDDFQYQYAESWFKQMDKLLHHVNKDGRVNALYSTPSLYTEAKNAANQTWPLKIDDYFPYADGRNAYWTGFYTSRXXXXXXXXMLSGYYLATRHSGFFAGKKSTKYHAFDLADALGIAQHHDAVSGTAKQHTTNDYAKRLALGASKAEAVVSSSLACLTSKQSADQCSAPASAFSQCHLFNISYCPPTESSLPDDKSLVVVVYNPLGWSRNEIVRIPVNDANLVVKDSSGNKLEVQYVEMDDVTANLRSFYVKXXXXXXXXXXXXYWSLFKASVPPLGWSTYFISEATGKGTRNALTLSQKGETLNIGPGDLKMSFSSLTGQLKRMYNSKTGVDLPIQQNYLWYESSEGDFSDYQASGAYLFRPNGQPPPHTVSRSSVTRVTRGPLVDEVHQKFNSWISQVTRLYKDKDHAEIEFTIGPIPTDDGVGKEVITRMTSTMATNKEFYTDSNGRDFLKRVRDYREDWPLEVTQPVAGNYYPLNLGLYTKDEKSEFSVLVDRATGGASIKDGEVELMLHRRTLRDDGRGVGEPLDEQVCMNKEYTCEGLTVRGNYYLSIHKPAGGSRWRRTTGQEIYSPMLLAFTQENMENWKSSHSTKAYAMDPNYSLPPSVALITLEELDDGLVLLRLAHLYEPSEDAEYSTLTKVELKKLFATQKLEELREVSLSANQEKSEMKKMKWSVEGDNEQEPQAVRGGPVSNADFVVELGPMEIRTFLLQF
# [5] = Inhibition of bovine kidney alpha-fucosidase at 0.1 mM using p-nitrophenyl glycopyranoside as substrate preincubated for 5 mins followed by substrate addition and measured after 20 mins by visible absorption spectroscopic analysis relative to control; design: species or system Bos taurus
# [6] = Inhibition of human alpha-fucosidase using p-nitrophenyl glycopyranoside as substrate preincubated for 5 mins followed by substrate addition and measured after 20 mins by visible absorption spectroscopic analysis
# [7] = molecular target: T3, Beta-galactosidase (Bos taurus) (UniProt Q58D55); test: Inhibition of bovine liver beta-galactosidase at 0.1 mM using p-nitrophenyl glycopyranoside as substrate preincubated for 5 mins followed by substrate addition and measured after 20 mins by visible absorption spectroscopic analysis
# T3 sequence (whole entry): T1 sequence (Q58D55 whole entry)
# [8] = Competitive inhibition of human alpha-fucosidase using p-nitrophenyl glycopyranoside as substrate preincubated for 5 mins followed by substrate addition and measured after 20 mins by Dixon plot analysis
# [9] = Uncompetitive inhibition of bovine kidney alpha-fucosidase using p-nitrophenyl glycopyranoside as substrate preincubated for 5 mins followed by substrate addition and measured after 20 mins by Cornish-Bowden plot analysis; design: species or system Bos taurus
# [10] = Inhibition of bovine kidney alpha-fucosidase using p-nitrophenyl glycopyranoside as substrate preincubated for 5 mins followed by substrate addition and measured after 20 mins by visible absorption spectroscopic analysis; design: species or system Bos taurus
# Bos taurus [11] = species on record: Bos taurus; test: Inhibition of bovine kidney alpha-fucosidase at 0.120 uM using p-nitrophenyl glycopyranoside as substrate preincubated for 5 mins followed by substrate addition and measured after 20 mins by visible absorption spectroscopic analysis
# Bos taurus [12] = species on record: Bos taurus; test: Inhibition of bovine kidney alpha-fucosidase at 5 uM using p-nitrophenyl glycopyranoside as substrate preincubated for 5 mins followed by substrate addition and measured after 20 mins by visible absorption spectroscopic analysis relative to control
# [13] = Uncompetitive inhibition of human alpha-fucosidase using p-nitrophenyl glycopyranoside as substrate preincubated for 5 mins followed by substrate addition and measured after 20 mins by Cornish-Bowden plot analysis
# Bos taurus [14] = species on record: Bos taurus; test: Inhibition of bovine kidney alpha-fucosidase at 0.120 uM using p-nitrophenyl glycopyranoside as substrate preincubated for 5 mins followed by substrate addition and measured after 20 mins by visible absorption spectroscopic analysis relative to control
# [15] = Competitive inhibition of bovine kidney alpha-fucosidase using p-nitrophenyl glycopyranoside as substrate preincubated for 5 mins followed by substrate addition and measured after 20 mins by Dixon plot analysis; design: species or system Bos taurus
# Alpha-galactosidase (Coffea arabica), sequence (Q42656 16-378 limits assumed): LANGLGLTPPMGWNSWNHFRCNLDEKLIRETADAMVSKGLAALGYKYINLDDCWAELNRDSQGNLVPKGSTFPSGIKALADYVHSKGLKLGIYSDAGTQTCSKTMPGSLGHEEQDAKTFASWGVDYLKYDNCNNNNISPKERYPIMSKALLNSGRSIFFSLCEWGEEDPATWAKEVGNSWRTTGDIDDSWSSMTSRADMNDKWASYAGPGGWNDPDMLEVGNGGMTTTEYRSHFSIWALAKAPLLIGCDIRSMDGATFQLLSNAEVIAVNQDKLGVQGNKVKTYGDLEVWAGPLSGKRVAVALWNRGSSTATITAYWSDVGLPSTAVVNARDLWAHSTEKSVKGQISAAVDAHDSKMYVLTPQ
SMILES,inhibition (Cornu aspersum),inhibition (Prunus dulcis),inhibition (Oryza sativa),inhibition (Canavalia ensiformis),inhibition (Saccharomyces cerevisiae),inhibition [3],inhibition (Aspergillus niger),inhibition [4],also measured
CCCCCCn1cc(CNC(=O)c2cc([C@H]3NC[C@@H](O)[C@H]3O)oc2C)nn1,inactive,inactive,inactive,inactive,inactive,inactive,inactive,inactive,IC50 (Beta-galactosidase [1]): 94 µM; Ki (Beta-galactosidase [2]): 58 µM; inhibition (Homo sapiens): inactive; IC50 [5]: 37 µM
C[C@@H]1N[C@@H](c2cn(-c3ccc(S(=O)(=O)c4ccc(-n5cc([C@@H]6N[C@@H](C)[C@@H](O)[C@H]6O)nn5)cc4)cc3)nn2)[C@H](O)[C@@H]1O,inactive,inactive,inactive,inactive,inactive,inactive,inactive,inactive,IC50 [6]: 0.21 µM; inhibition [7]: inactive; Ki [8]: 0.06 µM; Ki [9]: 0.00052 µM; IC50 [10]: 0.00048 µM; inhibition (Bos taurus [11]): Active; inhibition (Bos taurus [12]): 91%; Ki [13]: 0.15 µM; inhibition (Bos taurus [14]): 96%; Ki [15]: 0.00015 µM

# From ChEMBL document CHEMBL4270512, “Harnessing pyrrolidine iminosugars into dimeric structures for the rapid discovery of divalent glycosidase inhibitors” (Eur J Med Chem, 2018)
